Measurements as given in ChEMBL document CHEMBL2069226, “N-Aryl pyrrolidinonyl oxadiazoles as potent mGluR5 positive allosteric modulators” (Bioorg Med Chem Lett, 2012).
pEC50, pIC50, pKi: −log10 of the molar value. In brackets after ≈: the same amount, converted by molar mass.

How the values were obtained:
[1] = target: T1, Metabotropic glutamate receptor 5 (Homo sapiens, UniProt P41594); assay: Positive allosteric modulation of human mGluR5 expressed in HEK293A cells assessed as stimulation of glutamate-induced calcium flux by FLIPR method; assay type: functional, cell-based, HEK293-A; details: for Emax: HEK293-A
[2] = target: T1, Metabotropic glutamate receptor 5; assay: Negative allosteric modulation of human mGluR5 expressed in HEK293A cells assessed as inhibition of glutamate-induced calcium flux by FLIPR method; assay type: functional, cell-based, HEK293-A; details: for inhibition: HEK293-A, concentration not given here
[3] = Solubility of the compound in […] by UPLC method; assay type: physicochemical
[4] = Drug uptake in rat brain at 10 mg/kg, ip administered as single dose after 1 hr; assay type: ADME, organism-based; set-up: dose 10 mg/kg, route intraperitoneal; details: read-out: Drug uptake
[5] = Apparent permeability from apical to basolateral direction in MDCKI cells expressing MDR; assay type: ADME, cell-based, Canis lupus familiaris; details: dog, MDCK-MDR1
[6] = Plasma concentration in rat at 10 mg/kg, ip administered as single dose after 1 hr; assay type: ADME, organism-based; set-up: dose 10 mg/kg, route intraperitoneal
[7] = Apparent permeability from basolateral to apical direction in MDCKI cells expressing MDR; assay type: ADME, cell-based, Canis lupus familiaris; details: dog, MDCK-MDR1
[8] = Ratio of drug uptake in brain to plasma in rat at 10 mg/kg, ip administered as single dose after 1 hr; assay type: ADME, organism-based; set-up: dose 10 mg/kg, route intraperitoneal; details: read-out: BPR
[9] = Plasma protein binding in rat plasma; assay type: ADME, cell-free; details: read-out: PPB (converted)
Liver [10] = assay: Intrinsic clearance in human liver; assay type: ADME, tissue-based
[11] = target: T1, Metabotropic glutamate receptor 5; assay: Displacement of [3H]NAM from mGluR5
Target sequence in this assay (P41594 whole entry): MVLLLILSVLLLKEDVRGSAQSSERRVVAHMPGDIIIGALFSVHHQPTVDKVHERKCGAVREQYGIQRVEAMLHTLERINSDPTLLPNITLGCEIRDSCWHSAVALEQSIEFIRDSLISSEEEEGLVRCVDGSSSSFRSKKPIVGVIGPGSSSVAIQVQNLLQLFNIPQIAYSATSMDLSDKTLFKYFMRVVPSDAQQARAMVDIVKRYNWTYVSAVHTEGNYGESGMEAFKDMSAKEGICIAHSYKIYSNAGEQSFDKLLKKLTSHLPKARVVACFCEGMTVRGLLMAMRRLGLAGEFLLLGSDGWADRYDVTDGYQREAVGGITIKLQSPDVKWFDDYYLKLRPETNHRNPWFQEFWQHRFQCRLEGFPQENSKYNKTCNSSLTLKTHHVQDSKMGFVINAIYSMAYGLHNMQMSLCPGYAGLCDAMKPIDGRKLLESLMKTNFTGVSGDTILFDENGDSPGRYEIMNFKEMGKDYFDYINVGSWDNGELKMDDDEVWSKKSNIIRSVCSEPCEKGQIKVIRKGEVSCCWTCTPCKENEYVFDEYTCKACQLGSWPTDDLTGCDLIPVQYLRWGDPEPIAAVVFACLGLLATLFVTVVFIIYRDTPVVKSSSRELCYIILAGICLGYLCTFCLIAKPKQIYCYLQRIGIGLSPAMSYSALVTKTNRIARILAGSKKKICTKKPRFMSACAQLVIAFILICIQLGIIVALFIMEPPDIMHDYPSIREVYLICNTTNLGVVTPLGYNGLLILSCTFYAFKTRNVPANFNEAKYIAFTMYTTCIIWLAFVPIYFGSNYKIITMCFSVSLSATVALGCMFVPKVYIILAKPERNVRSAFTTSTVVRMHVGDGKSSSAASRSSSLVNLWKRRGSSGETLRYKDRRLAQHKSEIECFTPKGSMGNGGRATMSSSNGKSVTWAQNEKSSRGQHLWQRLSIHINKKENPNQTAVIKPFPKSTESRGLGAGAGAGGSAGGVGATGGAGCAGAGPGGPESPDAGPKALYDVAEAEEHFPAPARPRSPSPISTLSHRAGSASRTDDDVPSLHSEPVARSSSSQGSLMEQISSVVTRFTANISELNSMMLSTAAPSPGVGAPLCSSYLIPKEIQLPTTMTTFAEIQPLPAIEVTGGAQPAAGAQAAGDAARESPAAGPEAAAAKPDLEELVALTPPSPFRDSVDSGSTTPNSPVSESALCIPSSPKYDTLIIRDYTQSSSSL

Liver [12] = assay: Intrinsic clearance in rat liver; assay type: ADME, tissue-based
[13] = Plasma protein binding in human plasma; assay type: ADME, cell-free; details: read-out: PPB (converted)
Cytochrome P450 2C19 = Cytochrome P450 2C19 (Homo sapiens, UniProt P33261); assay: Inhibition of CYP2C19; assay type: ADME
Cytochrome P450 2C9 = Cytochrome P450 2C9 (Homo sapiens, UniProt P11712); assay: Inhibition of CYP2C9; assay type: ADME
Cytochrome P450 1A2 = target: T2, Cytochrome P450 1A2 (Homo sapiens, UniProt P05177); assay: Inhibition of CYP1A2; assay type: ADME
T2 sequence (P05177 whole entry): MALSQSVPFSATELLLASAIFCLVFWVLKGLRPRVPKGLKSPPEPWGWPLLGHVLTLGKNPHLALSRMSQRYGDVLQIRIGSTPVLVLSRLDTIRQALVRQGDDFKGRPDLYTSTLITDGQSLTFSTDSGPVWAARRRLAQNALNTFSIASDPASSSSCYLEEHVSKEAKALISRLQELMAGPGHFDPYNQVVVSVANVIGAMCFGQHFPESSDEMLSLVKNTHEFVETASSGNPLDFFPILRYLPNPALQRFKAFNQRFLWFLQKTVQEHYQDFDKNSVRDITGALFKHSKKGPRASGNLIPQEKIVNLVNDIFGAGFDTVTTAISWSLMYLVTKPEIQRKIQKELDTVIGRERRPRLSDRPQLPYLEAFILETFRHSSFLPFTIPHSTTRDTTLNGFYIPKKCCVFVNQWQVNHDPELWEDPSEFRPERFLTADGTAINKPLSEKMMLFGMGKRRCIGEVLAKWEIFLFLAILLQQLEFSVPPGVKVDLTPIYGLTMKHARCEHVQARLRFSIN

Cytochrome P450 3A4 = Cytochrome P450 3A4 (Homo sapiens, UniProt P08684); assay: Inhibition of CYP3A4; assay type: ADME
Cytochrome P450 2D6 = Cytochrome P450 2D6 (Homo sapiens, UniProt P10635); assay: Inhibition of CYP2D6; assay type: ADME
Chain of Cytochrome P450 2D6 (P10635 whole entry): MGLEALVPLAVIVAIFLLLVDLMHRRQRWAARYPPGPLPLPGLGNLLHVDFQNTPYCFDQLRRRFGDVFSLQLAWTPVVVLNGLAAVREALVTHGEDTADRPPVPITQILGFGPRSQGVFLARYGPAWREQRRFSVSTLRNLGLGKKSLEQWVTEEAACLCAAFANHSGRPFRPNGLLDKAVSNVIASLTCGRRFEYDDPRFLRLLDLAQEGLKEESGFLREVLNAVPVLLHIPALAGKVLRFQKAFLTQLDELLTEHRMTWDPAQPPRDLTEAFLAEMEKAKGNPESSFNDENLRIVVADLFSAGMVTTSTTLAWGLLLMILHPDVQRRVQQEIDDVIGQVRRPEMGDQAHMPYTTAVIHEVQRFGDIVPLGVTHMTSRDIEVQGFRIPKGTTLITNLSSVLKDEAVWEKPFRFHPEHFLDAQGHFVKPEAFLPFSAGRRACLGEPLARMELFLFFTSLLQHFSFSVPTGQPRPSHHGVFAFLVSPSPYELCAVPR

Chain of Cytochrome P450 2C19 (P33261 whole entry): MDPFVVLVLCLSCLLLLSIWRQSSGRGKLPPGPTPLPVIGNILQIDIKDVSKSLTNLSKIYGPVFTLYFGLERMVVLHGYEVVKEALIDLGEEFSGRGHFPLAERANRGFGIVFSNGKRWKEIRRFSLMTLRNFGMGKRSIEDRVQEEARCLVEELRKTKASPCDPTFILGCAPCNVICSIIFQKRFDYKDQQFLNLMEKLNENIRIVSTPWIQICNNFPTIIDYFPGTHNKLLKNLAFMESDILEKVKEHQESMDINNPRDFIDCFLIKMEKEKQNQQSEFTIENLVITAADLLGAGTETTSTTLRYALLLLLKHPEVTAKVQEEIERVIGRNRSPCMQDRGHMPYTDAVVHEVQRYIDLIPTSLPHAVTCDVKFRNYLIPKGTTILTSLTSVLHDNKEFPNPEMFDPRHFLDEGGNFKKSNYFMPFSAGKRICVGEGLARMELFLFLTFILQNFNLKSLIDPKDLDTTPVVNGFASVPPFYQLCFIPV
Chain of Cytochrome P450 3A4 (P08684 whole entry): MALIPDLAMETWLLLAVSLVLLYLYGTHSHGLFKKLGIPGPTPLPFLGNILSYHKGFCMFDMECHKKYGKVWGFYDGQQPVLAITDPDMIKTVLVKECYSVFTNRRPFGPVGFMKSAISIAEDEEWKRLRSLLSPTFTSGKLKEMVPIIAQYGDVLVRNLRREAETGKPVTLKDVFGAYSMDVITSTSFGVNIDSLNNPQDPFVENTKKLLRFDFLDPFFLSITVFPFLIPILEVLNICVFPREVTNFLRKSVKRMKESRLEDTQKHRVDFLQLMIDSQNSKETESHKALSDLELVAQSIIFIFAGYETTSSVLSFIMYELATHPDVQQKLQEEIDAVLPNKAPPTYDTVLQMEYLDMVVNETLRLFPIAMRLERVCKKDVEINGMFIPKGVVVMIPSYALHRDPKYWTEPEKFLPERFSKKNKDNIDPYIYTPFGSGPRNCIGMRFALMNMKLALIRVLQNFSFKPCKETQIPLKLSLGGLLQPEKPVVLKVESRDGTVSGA
Chain of Cytochrome P450 2C9 (P11712 whole entry): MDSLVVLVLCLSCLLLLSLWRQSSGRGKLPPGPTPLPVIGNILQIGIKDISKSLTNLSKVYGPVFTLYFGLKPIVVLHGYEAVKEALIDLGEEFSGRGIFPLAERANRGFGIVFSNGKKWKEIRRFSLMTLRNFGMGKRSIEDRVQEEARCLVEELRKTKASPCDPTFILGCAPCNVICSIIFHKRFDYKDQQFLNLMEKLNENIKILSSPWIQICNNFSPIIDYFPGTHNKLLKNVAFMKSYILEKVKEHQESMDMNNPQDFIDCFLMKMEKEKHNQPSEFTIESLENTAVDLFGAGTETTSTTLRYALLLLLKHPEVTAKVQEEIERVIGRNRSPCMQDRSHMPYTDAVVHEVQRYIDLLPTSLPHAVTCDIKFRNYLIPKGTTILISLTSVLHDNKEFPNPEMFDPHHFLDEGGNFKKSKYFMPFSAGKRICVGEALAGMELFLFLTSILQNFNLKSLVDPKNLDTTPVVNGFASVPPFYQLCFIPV

Row | SMILES | pEC50 [1] | Emax [1] | pIC50 [2] | inhibition [2] | other results
1 | Cc1cccc(-c2noc(C3CC(=O)N(c4ccc(Cl)c(Cl)c4)C3)n2)c1 (configuration not stated) | 6.41 | 65% |  |  | 
2 | Cc1cccc(-c2noc(C3CC(=O)N(c4ccc(Cl)cc4)C3)n2)c1 (configuration not stated) | 6.77 | 1.6% |  |  | 
3 | COc1ccccc1N1CC(c2nc(-c3cccc(Cl)c3)no2)CC1=O (configuration not stated) | < 5.00 | -31% | 6.20 | 93% | 
4 | C[C@H](c1ccccc1)N1C[C@H](c2nc(-c3cccc(Cl)c3)no2)CC1=O |  |  | 5.80 |  | solubility [3]: 23 µM (≈ 8.46 µg/mL)
5 | O=C1CC(c2nc(Cc3ccccc3)no2)CN1c1ccc(F)cc1 (configuration not stated) |  |  |  |  | solubility [3]: 23 µM (≈ 7.76 µg/mL)
6 | O=C1COc2ccccc2N1CCc1nc(-c2cccc(Cl)c2)no1 | < 5.00 | -29% | 6.10 | 88% | 
7 | O=c1sc2ccccc2n1Cc1nc(-c2cccc(Cl)c2)no1 | < 5.00 | 7% | 5.96 | 71% | 
8 | O=C1CC(c2nc(-c3cccc(Cl)c3)no2)CN1Cc1ccc(F)cc1 (configuration not stated) |  |  | 5.44 |  | solubility [3]: 23 µM (≈ 8.55 µg/mL)
9 | O=C1CC(c2nc(-c3ccccn3)no2)CN1c1ccc(F)cc1 (configuration not stated) | < 5.00 | -41% |  |  | solubility [3]: 26 µM (≈ 8.43 µg/mL)
10 | COc1cccc(-c2noc(C3CC(=O)N(c4ccc(F)cc4)C3)n2)c1 (configuration not stated) | 5.96 | 48% |  |  | 
11 | O=C1CC(c2nc(-c3cccc(Cl)c3)no2)CN1c1ccc(Cl)c(Cl)c1 (configuration not stated) | 6.34 | 51% | < 5.00 | 8.3% | 
12 | O=C1CC(c2nc(-c3ccccc3)no2)CN1c1ccc(F)cc1 (configuration not stated) | 7.24 | 130% |  |  | 
13 | COc1cccc(-c2noc(C3CC(=O)N(c4ccc(Cl)cc4)C3)n2)c1 (configuration not stated) | 5.32 | 50% |  |  | 
14 | O=C1CC(c2nc(-c3ccc(F)cc3)no2)CN1c1ccc(Cl)cc1 (configuration not stated) | 5.77 | 33% |  |  | 
15 | Cc1ccc(N2CC(c3nc(-c4cccc(F)c4)no3)CC2=O)cc1 (configuration not stated) | 5.92 | 130% |  |  | 
16 | Cc1cccc(-c2noc(C3CC(=O)N(c4ccc(F)cc4)C3)n2)n1 (configuration not stated) | < 5.00 | -15% |  |  | solubility [3]: 26 µM (≈ 8.8 µg/mL)
17 | O=C1CC(c2nc(-c3ccc(F)cc3)no2)CN1c1ccc(Cl)c(Cl)c1 (configuration not stated) | 5.64 | 44% |  |  | 
18 | COc1cccc(N2CC(c3nc(-c4cccc(Cl)c4)no3)CC2=O)c1 (configuration not stated) | < 5.00 | -37% | 6.16 | 92% | 
19 | CC(C)N1CC(c2nc(-c3cccc(Cl)c3)no2)CC1=O (configuration not stated) |  |  |  |  | solubility [3]: 23 µM (≈ 7.03 µg/mL)
20 | O=C1CC(c2nc(-c3ccc(Cl)cc3)no2)CN1c1ccc(Cl)c(Cl)c1 (configuration not stated) | 5.96 | 44% |  |  | 
21 | O=C1CC(c2nc(-c3cccc(Cl)c3)no2)CN1c1cccc(Cl)c1 (configuration not stated) | < 5.00 | -18% | 5.96 | 68% | 
22 | O=C1CC(c2nc(-c3cccc(Cl)c3)no2)CN1c1ccccc1Cl (configuration not stated) | < 5.00 | -31% | 6.17 | 93% | 
23 | O=C1CC(c2nc(-c3cccc(C(F)(F)F)c3)no2)CN1c1ccc(F)cc1 (configuration not stated) | < 5.00 | 25% |  |  | 
24 | Cc1cccc(-c2noc(C3CC(=O)N(c4ccc(F)cc4)C3)n2)c1 (single isomer, unassigned; (-)) | 8.29 |  |  |  | concentration at 1 h [4]: 342 ng/g; Papp A→B [5]: 200 nm/s; concentration at 1 h [6]: 0.046 µg/mL; Papp B→A [7]: 64 nm/s; Kp at 1 h [8]: 7.5; fraction unbound [9]: 0.003; CLH (Liver [10]): 1 L/min; pKi [11]: 6.64; CLH (Liver [12]): 20 mL/min; fraction unbound [13]: 0.007
25 | Cc1ccccc1N1CC(c2nc(-c3cccc(Cl)c3)no2)CC1=O (configuration not stated) | < 5.00 | -29% | 6.43 | 91% | 

Row | SMILES | pEC50 [1] | Emax [1] | pIC50 [2] | inhibition [2] | other results
26 | O=C1COc2ccccc2N1Cc1nc(-c2cccc(Cl)c2)no1 | < 5.00 | -28% | 6.11 | 84% | 
27 | Cc1ccc(N2CC(c3nc(-c4cccc(Cl)c4)no3)CC2=O)cc1C (configuration not stated) | 6.51 | 57% | < 5.00 |  | 
28 | O=C1CC(c2nc(-c3cccc(F)c3)no2)CN1c1ccc(F)cc1 (configuration not stated) | 7.06 | 140% |  |  | 
29 | O=C1CC(c2nc(-c3ccccc3)no2)CN1c1ccccc1 (configuration not stated) | 6.46 | 42% |  |  | 
30 | Cc1ccc(N2CC(c3nc(-c4cccc(C(F)(F)F)c4)no3)CC2=O)cc1 (configuration not stated) | 5.47 | 32% |  |  | 
31 | CC(C)CN1CC(c2nc(-c3cccc(Cl)c3)no2)CC1=O (configuration not stated) |  |  | 6.04 |  | solubility [3]: 23 µM (≈ 7.36 µg/mL)
32 | Cc1cccc(-c2noc(C3CC(=O)N(c4ccc(F)cc4)C3)n2)c1 (racemic) [listing 1 of 2 here] |  | 78% |  |  | 
33 | O=C1CC(c2nc(-c3cccc(Cl)c3)no2)CN1c1ccc(F)cc1 (racemic) [listing 1 of 2 here] |  | 55% |  |  | 
34 | O=C1CC(c2nc(-c3cccc(Cl)c3)no2)CN1c1ccc(F)cc1 (racemic) [listing 2 of 2 here] | 7.97 |  | < 5.00 |  | concentration at 1 h [4]: 86 ng/g; concentration at 1 h [6]: 0.022 µg/mL; solubility [3]: 15 µM (≈ 5.37 µg/mL); CLH (Liver [10]): 0.6 L/min; pKi [11]: 6.39; CLH (Liver [12]): 22 mL/min
35 | COc1ccc(N2CC(c3nc(-c4cccc(Cl)c4)no3)CC2=O)cc1 (configuration not stated) | < 5.00 | 47% | 5.45 | 2% | 
36 | Cc1cccc(N2CC(c3nc(-c4cccc(Cl)c4)no3)CC2=O)c1 (configuration not stated) | < 5.00 | 28% | 5.64 | 85% | 
37 | Cc1cccc(-c2noc(C3CC(=O)N(c4ccc(F)cc4)C3)n2)c1 (racemic) [listing 2 of 2 here] | 7.90 |  |  |  | pIC50 (Cytochrome P450 2C19): < 4.96; pIC50 (Cytochrome P450 2C9): < 4.96; pIC50 (Cytochrome P450 1A2): < 4.96; solubility [3]: 2.7 µM (≈ 0.911 µg/mL); pIC50 (Cytochrome P450 3A4): < 4.96; CLH (Liver [10]): 2.7 L/min; CLH (Liver [12]): 27 mL/min; pIC50 (Cytochrome P450 2D6): < 4.96
38 | Cc1cccc(-c2noc(C3CC(=O)N(c4ccc(Cl)cc4)C3)n2)n1 (configuration not stated) | < 5.00 | 1% |  |  | solubility [3]: 26 µM (≈ 9.22 µg/mL)
39 | O=C1CC(c2nc(-c3cccc(Cl)c3)no2)CN1c1ccc(Cl)cc1 (configuration not stated) | 6.85 | 67% | < 5.00 | 44% | 
40 | Cc1cccc(-c2noc(C3CC(=O)N(c4ccc(C)c(Cl)c4)C3)n2)c1 (configuration not stated) | 6.62 | 90% |  |  | 
41 | O=C1CC(c2nc(-c3cccc(F)c3)no2)CN1c1ccc(Cl)c(Cl)c1 (configuration not stated) | 5.49 | 140% |  |  | 
42 | O=C1CC(c2nc(-c3cccc(F)c3)no2)CN1c1ccc(Cl)cc1 (configuration not stated) | 6.20 | 120% |  |  | 
43 | O=C1CC(c2nc(-c3cccc(Cl)c3)no2)CN1c1ccc(F)cc1 (single isomer, unassigned; (-)) | 8.06 |  |  |  | pKi [11]: 6.82
44 | O=C1CC(c2nc(-c3cccc(Cl)c3)no2)CN1c1ccccc1F (configuration not stated) | < 5.00 | -29% | 5.96 | 89% | 
45 | Cc1ccc(N2CC(c3nc(-c4cccc(Cl)c4)no3)CC2=O)cc1 (configuration not stated) | 6.20 | 69% | < 5.00 | -2.5% | 
46 | Cc1ccc(N2CC(c3nc(-c4cccc(C)c4)no3)CC2=O)cc1 (configuration not stated) | 5.89 | 150% |  |  | 
47 | Cc1ccc(N2CC(c3nc(-c4ccccc4)no3)CC2=O)cc1 (configuration not stated) | 6.42 | 41% |  |  | 
48 | O=c1oc2ccccc2n1Cc1nc(-c2cccc(Cl)c2)no1 | < 5.00 | 4% | 5.68 | 50% | 
49 | O=C1CCc2ccc(Cl)cc2N1CCc1nc(-c2cccc(Cl)c2)no1 | < 5.00 | -29% | 6.26 | 82% | 
